From PubChem BioAssay (NCI)
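Interpolation was linear, between the two tested concentrations surrounding the appropriate level; five concentrations were tested over 48 hours in 96-well plates. At the GI50, growth is halved. TGI denotes the concentration required for complete inhibition of growth.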

Key:
Experiment in all cases: NCI-60 cell line screen, 48 h
HL-60(TB) leukemia = tested on: HL-60(TB) leukemia
OVCAR-8 ovarian = tested on: OVCAR-8 ovarian
MDA-MB-231 breast = tested on: MDA-MB-231 breast
OVCAR-5 ovarian = tested on: OVCAR-5 ovarian
SK-OV-3 ovarian = tested on: SK-OV-3 ovarian
SW-620 colon = tested on: SW-620 colon
SR leukemia = tested on: SR leukemia
U251 CNS = tested on: U251 CNS
SK-MEL-5 melanoma = tested on: SK-MEL-5 melanoma
HS 578T breast = tested on: HS 578T breast

Row | SMILES | TGI (HL-60(TB) leukemia) | TGI (OVCAR-8 ovarian) | TGI (MDA-MB-231 breast) | TGI (OVCAR-5 ovarian) | TGI (SK-OV-3 ovarian) | TGI (SW-620 colon) | TGI (SR leukemia) | TGI (U251 CNS) | TGI (SK-MEL-5 melanoma) | TGI (HS 578T breast) | GI50 (HL-60(TB) leukemia) | GI50 (MDA-MB-231 breast) | GI50 (OVCAR-5 ovarian) | GI50 (SK-OV-3 ovarian) | GI50 (SK-MEL-5 melanoma) | GI50 (SW-620 colon) | GI50 (HS 578T breast) | GI50 (SR leukemia) | GI50 (U251 CNS)
1 | CCOC(=N)n1c(=O)n(C2=NCCN2)c2ccccc21 | > 100 µM | > 100 µM | > 100 µM | > 100 µM | > 100 µM | > 100 µM | > 100 µM | > 100 µM | – | – | – | – | – | – | – | – | – | – | –
2 | COC(=O)c1c2c(cc3c1CC1(C3)Cc3cc4c(c(C(=O)OC)c3C1)CCCC4)CCCC2 | 74.5 µM | > 100 µM | > 100 µM | > 100 µM | > 100 µM | – | – | > 100 µM | > 100 µM | > 100 µM | – | – | – | – | – | – | – | – | –
3 | c1ccc2sc(SCSc3nc4ccccc4s3)nc2c1 | – | > 100 µM | > 100 µM | > 100 µM | – | > 100 µM | > 100 µM | > 100 µM | > 100 µM | > 100 µM | – | – | – | – | – | – | – | – | –
4 | N#C/C(=C\c1cc(Br)c(O)c(Br)c1)c1cccnc1 | > 100 µM | > 100 µM | – | > 100 µM | > 100 µM | > 100 µM | 76.5 µM | 35.6 µM | – | – | – | – | – | – | – | – | – | – | –
5 | O=C(N=Nc1cc(Cl)ccc1Cl)NNc1cc(Cl)ccc1Cl | 32.4 µM | > 100 µM | 40.1 µM | 39.8 µM | 63 µM | – | > 100 µM | 31.3 µM | 25.3 µM | 52.6 µM | – | – | – | – | – | – | – | – | –
6 | O=C1C=CC(=O)N1Nc1ccc([N+](=O)[O-])cc1[N+](=O)[O-] | > 51.5 µM | > 100 µM | – | > 100 µM | > 100 µM | > 100 µM | > 63.1 µM | > 100 µM | > 100 µM | – | – | – | – | – | – | – | – | – | –
7 | COc1ccc2cc3c4cc5c(cc4cc[n+]3cc2c1OC)OCO5 | > 65.5 µM | > 94.8 µM | > 100 µM | > 100 µM | > 84.9 µM | > 62.2 µM | – | 15.3 µM | 14.1 µM | 31.3 µM | – | – | – | – | – | – | – | – | –
8 | C(=N\NC1=NCCCN1)/c1ccc2ccccc2c1 | 21 µM | 29.3 µM | 20 µM | 21.8 µM | 23.6 µM | 28.4 µM | – | 19.8 µM | 10.3 µM | 41.3 µM | – | – | – | – | – | – | – | – | –
9 | Cc1cc(=O)c2c([nH]1)NS(=O)(=O)NC2=O | > 100 µM | > 100 µM | – | – | > 100 µM | > 100 µM | > 100 µM | – | – | – | – | – | – | – | – | – | – | – | –
10 | BrC/C=C/C[P+](c1ccccc1)(c1ccccc1)c1ccccc1 | 39.2 µM | > 100 µM | – | > 100 µM | > 100 µM | > 100 µM | – | 87 µM | 39.8 µM | – | – | – | – | – | – | – | – | – | –
11 | CC12CC(=O)C3C(C(=O)C1)C32C (stereo not drawn) | – | > 100 µM | > 100 µM | > 100 µM | > 100 µM | > 100 µM | > 100 µM | > 100 µM | > 100 µM | – | – | – | – | – | – | – | – | – | –
12 | Cc1cn(C2OC(C)(CO)C(O)C2O)c(=O)[nH]c1=O (stereo not drawn) | – | > 100 µM | – | > 100 µM | > 100 µM | > 100 µM | > 100 µM | > 100 µM | > 100 µM | – | – | – | – | – | – | – | – | – | –
13 | CS(=O)(=O)OCCn1c(=O)n(CCOS(C)(=O)=O)c(=O)n(CCOS(C)(=O)=O)c1=O | > 100 µM | > 100 µM | > 100 µM | > 100 µM | > 100 µM | > 100 µM | > 100 µM | > 100 µM | > 100 µM | – | – | – | – | – | – | – | – | – | –
14 | COc1cc2c(cc1-c1c(C)noc1C)cc(C)c(=O)n2Cc1ccccn1 | 3.77 µM | – | > 100 µM | > 100 µM | 7.82 µM | > 100 µM | > 100 µM | > 100 µM | 10.7 µM | 13.3 µM | 0.301 µM | 0.809 µM | 2.78 µM | 0.554 µM | 1.99 µM | 2.59 µM | 0.318 µM | 0.709 µM | 4.43 µM
15 | COc1cc(C2CC(C)(Nc3ccccc3)Oc3cc4c(cc32)OCO4)cc(OC)c1OC (stereo not drawn) | – | > 100 µM | 4.34 µM | > 34.3 µM | 25.9 µM | > 100 µM | > 60.7 µM | 17.2 µM | 8.01 µM | > 100 µM | – | – | – | – | – | – | – | – | –
16 | CC(=O)N(C(C)=O)C1=C2c3ccccc3N(S(=O)(=O)c3ccccc3)C2n2c(=O)n(-c3ccccc3)c(=O)n2C1 (stereo not drawn) | 63.3 µM | > 100 µM | – | > 100 µM | > 100 µM | > 100 µM | 39.5 µM | > 100 µM | 58.8 µM | – | – | – | – | – | – | – | – | – | –
17 | CSc1cc(Cl)c(C)cc1S(=O)(=O)NC(=O)NNc1ccc(Cl)cc1 | – | > 100 µM | > 100 µM | > 100 µM | > 100 µM | > 100 µM | > 100 µM | > 100 µM | > 100 µM | > 100 µM | – | – | – | – | – | – | – | – | –
18 | CCCNC(=O)CCC(C)[C@H]1CCC2C3C(C[C@H](OC(C)=O)[C@@]21C)[C@@]1(C)CCC2(C[C@H]1C[C@H]3OC(C)=O)OOC1(CCC(C)CC1)OO2 (stereo partly drawn) | 32.4 µM | 48.3 µM | 98.4 µM | 87.4 µM | > 100 µM | – | 36.5 µM | 30.6 µM | 28.6 µM | > 100 µM | – | – | – | – | – | – | – | – | –
19 | O=C1C[C@H](Sc2ccccc2)C2(OCCO2)[C@@H](Sc2ccccc2)C1 | – | 8.02 µM | 5.78 µM | 12.3 µM | 24.7 µM | 10.4 µM | 1.22 µM | 6.76 µM | 4.23 µM | 5.85 µM | – | – | – | – | – | – | – | – | –
20 | CC(C(=O)n1nnc2ccccc21)N(c1ccccc1)c1ccccc1 (stereo not drawn) | > 100 µM | > 100 µM | – | > 100 µM | > 100 µM | > 100 µM | > 100 µM | > 100 µM | > 100 µM | – | – | – | – | – | – | – | – | – | –
21 | CC(=O)OCC1OC(n2cc([N+](=O)[O-])c(=O)[nH]c2=O)C(OC(C)=O)C(OC(C)=O)C1OC(C)=O (stereo not drawn) | > 100 µM | > 100 µM | – | > 100 µM | > 100 µM | > 100 µM | > 100 µM | > 100 µM | > 100 µM | – | – | – | – | – | – | – | – | – | –
22 | COc1cc(NS(C)(=O)=O)ccc1N1Cc2cnc3ccc4[nH]c(C)cc1c4c23 | > 100 µM | > 100 µM | > 100 µM | > 100 µM | > 100 µM | > 100 µM | – | > 100 µM | > 100 µM | > 100 µM | – | – | – | – | – | – | – | – | –
23 | CSc1c(C#N)c(N)n2c1C(=O)N(c1ccccc1)C2=S | > 100 µM | > 100 µM | 45.6 µM | > 100 µM | > 100 µM | > 100 µM | – | > 100 µM | > 100 µM | 80.7 µM | – | – | – | – | – | – | – | – | –
